These results are taken from publication PMC8343220, “The selectivity of α‐adrenoceptor agonists for the human α1A, α1B, and α1D‐adrenoceptors” (Pharmacology Research & Perspectives, 2021).

The test system of assay [1] is parental CHO cell line without any transfected receptors. Description: Intracellular calcium mobilization, parent CHO cells without transfected receptors. The class given is cell-based, Chinese hamster. In general terms: A change in cytosolic calcium serves as a functional read-out for many receptors and channels.
For assay [2] the test system is unchanged. Description: ERK1/2‐phosphorylation, parent CHO cells without transfected receptors. The class given is cell-based, Chinese hamster.
Assay [3] shares this test system. Description: ^3H‐cAMP accumulation, parent CHO cells without transfected receptors. Format: cell-based, Chinese hamster. (In general: Changes in cAMP serve as a functional read-out for many G protein-coupled receptors.)
The test system is the same in assay [4]. In words: Forskolin‐stimulated cAMP accumulation, parent CHO cells without transfected receptors. The class given is cell-based, Chinese hamster.
Assay [5] has as its target T1, human α1A‐adrenoceptor (Homo sapiens, UniProt P35348).
T1 construct: expressed in transfected cells; host or cells: CHO-K1
T1 sequence (P35348 1-466): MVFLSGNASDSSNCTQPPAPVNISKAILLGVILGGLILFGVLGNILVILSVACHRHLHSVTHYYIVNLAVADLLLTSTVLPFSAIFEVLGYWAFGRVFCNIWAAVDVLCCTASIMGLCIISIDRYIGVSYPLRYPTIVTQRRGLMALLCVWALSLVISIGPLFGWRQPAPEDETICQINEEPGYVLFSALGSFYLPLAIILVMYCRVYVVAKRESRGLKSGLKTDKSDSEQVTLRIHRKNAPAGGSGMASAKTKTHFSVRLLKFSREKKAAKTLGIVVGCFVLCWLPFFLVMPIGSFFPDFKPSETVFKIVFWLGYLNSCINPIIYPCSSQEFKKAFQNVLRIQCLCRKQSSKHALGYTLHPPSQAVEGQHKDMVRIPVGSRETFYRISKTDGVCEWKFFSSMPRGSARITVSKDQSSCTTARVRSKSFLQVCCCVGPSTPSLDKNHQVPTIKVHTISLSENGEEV
Description: ^3H‐prazosin whole‐cell radioligand binding, CHO‐α1A cells.

For assay [6], the target named is T2, human α1B‐adrenoceptor (Homo sapiens, UniProt P35368).
T2 construct: expressed in transfected cells; host or cells: CHO-K1
T2 sequence (P35368 1-520): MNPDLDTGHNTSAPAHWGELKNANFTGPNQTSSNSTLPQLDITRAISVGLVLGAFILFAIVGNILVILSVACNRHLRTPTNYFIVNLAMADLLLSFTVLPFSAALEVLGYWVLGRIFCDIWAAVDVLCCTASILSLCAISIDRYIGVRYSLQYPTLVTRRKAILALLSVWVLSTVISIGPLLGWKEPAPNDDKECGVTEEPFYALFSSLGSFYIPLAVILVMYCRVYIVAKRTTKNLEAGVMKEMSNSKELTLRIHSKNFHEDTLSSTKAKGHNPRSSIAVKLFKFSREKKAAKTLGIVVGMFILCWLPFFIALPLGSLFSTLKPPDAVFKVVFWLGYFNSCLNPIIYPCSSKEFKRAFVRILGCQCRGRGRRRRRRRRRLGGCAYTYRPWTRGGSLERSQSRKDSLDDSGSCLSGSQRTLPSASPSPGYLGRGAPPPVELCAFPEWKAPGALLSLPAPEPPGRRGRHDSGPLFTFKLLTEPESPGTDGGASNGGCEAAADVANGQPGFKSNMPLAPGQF
Description: ^3H‐prazosin whole‐cell radioligand binding, CHO‐α1B cells.

For assay [7], the target named is T3, human α1D‐adrenoceptor (full length) (Homo sapiens, UniProt P25100).
T3 construct: human α1D‐adrenoceptor (full length) were used; expressed in transfected cells; host or cells: CHO-K1
T3 sequence (P25100 1-572): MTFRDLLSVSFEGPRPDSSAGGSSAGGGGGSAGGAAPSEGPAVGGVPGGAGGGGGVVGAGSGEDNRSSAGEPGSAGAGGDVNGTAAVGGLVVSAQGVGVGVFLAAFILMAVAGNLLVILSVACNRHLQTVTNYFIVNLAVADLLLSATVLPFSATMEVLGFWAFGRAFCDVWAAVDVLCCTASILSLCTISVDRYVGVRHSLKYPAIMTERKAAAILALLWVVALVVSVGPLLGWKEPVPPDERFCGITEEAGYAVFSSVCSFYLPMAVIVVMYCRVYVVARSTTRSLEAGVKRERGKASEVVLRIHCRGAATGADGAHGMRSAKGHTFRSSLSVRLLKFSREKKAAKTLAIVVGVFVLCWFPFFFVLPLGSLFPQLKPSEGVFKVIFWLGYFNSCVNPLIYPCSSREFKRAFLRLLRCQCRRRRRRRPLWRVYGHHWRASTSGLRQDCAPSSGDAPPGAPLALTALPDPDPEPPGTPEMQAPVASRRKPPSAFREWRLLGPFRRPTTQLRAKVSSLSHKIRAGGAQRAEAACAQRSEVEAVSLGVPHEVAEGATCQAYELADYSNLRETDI
Description: ^3H‐prazosin whole‐cell radioligand binding, CHO‐α1D cells.

The target in assay [8] is T1, human α1A‐adrenoceptor. Description: Intracellular free calcium mobilization, CHO‐α1A cells. The class given is cell-based.
The target of assay [9] is T2, human α1B‐adrenoceptor. Description: Intracellular free calcium mobilization, CHO‐α1B cells. Format: cell-based.
Assay [10] concerns the target T3, human α1D‐adrenoceptor (full length). Description: Intracellular free calcium mobilization, CHO‐α1D cells. Format: cell-based.
For assay [11], the target named is T1, human α1A‐adrenoceptor. Description: ERK1/2‐phosphorylation (Surefire Alphascreen), CHO‐α1A cells. Format: cell-based. For orientation: Bead proximity is the source of the signal in Alpha formats.
Assay [12] concerns the target T2, human α1B‐adrenoceptor. Description: ERK1/2‐phosphorylation (Surefire Alphascreen), CHO‐α1B cells. The class given is cell-based.
Assay [13] has as its target T3, human α1D‐adrenoceptor (full length). In words: ERK1/2‐phosphorylation (Surefire Alphascreen), CHO‐α1D cells. Format: cell-based.
For assay [14], the target named is T1, human α1A‐adrenoceptor. In words: ^3H‐cAMP accumulation, CHO‐α1A cells. The settings on record: CHO‐α1A cells. Format: cell-based.
Assay [15] deals with T2, human α1B‐adrenoceptor. Description: ^3H‐cAMP accumulation, CHO‐α1B cells. As to conditions: CHO‐α1B cells. Format: cell-based.
The target in assay [16] is T3, human α1D‐adrenoceptor (full length). Description: ^3H‐cAMP accumulation, CHO‐α1D cells. The class given is cell-based. The settings on record: cAMP accumulation without forskolin.
Assay [17] concerns the target T1, human α1A‐adrenoceptor. Description: ^3H‐cAMP accumulation in the presence of 10 μM forskolin, CHO‐α1A cells. The class given is cell-based. The settings on record: CHO‐α1A cells.
Assay [18] has as its target T2, human α1B‐adrenoceptor. Description: ^3H‐cAMP accumulation in the presence of 10 μM forskolin, CHO‐α1B cells. Format: cell-based. The settings on record: CHO‐α1B cells.
The target in assay [19] is T3, human α1D‐adrenoceptor (full length). Description: ^3H‐cAMP accumulation in the presence of 10 μM forskolin, CHO‐α1D cells. As to conditions: CHO‐α1D cells. The class given is cell-based.
The mark [20] stands for this setting: read-out: Intracellular calcium release Log EC50 (converted).
[21] abbreviates: read-out: ERK1/2‐phosphorylation Log EC50 (converted).
The mark [22] stands for this setting: fold increase of the forskolin response.

As for `COc1ccccc1N1CCN(CC2CN3C(=O)N(C)c4ccccc4C3=N2)CC1` (stereo not drawn) [2-MPMDQ], the “Intracellular calcium release % ionomycin” value in assay [1] is “No response”. Also, in assay [2], the “ERK1/2-phosphorylation % PDBu” value is listed as “No response”. Further, the “cAMP accumulation % forskolin” value in [3] is reported as “No response”. Besides, in assay [4], the “cAMP accumulation (in presence of forskolin) % forskolin-stim cAMP” value is “No response” and the “cAMP accumulation (in presence of forskolin) Log EC50” value is “No response”.

A word on the Kd: it is the free concentration of one partner at which half of the binding sites on the other are occupied at equilibrium, for simple one-to-one binding. Regarding `Cc1cccc([C@H](C)c2cnc[nH]2)c1C` [Dexmedetomidine], in [5], the “Affinity selectivity ratio α1A vs α1B” value is recorded as 6.9 fold. Besides, the dissociation constant Kd was 1320 nM in [5] (Log KD α1A, ^3H‐prazosin whole cell binding); 9120 nM in [6] (Log KD α1B, ^3H‐prazosin whole cell binding); 9120 nM in assay [6] (Log KD, ^3H‐prazosin binding); 1230 nM in assay [7] (3H‐prazosin binding Log KD); 1230 nM in assay [7] (Log KD α1D, ^3H‐prazosin whole cell binding). In addition, in [7], the “Affinity selectivity ratio α1A vs α1D” value is reported as 1.3 fold. In assay [7], the “Affinity selectivity ratio α1B vs α1D” value amounted to 9.3 fold. In addition, the “Intracellular calcium release % ionomycin” value in [8] was found to be 57.3 ± 2.8%; in assay [9], 43.6 ± 2.1%. Further, the figures for the “Log efficacy ratio KD /EC50” value in [8] and in [9] were 1.91 and 2.29, respectively. In addition, the EC50 is 16.2 nM in assay [8] (setting [20]); 46.8 nM in assay [9] (setting [20]); 13.8 nM in assay [11] (setting [21]); 132 nM in [12] (setting [21]); 513 nM in assay [14] (5 h, read-out: cAMP accumulation Log EC50 (converted)); 89.1 nM in assay [15] (read-out: cAMP accumulation Log EC50 (converted)). Further, the EC50 is 85.1 nM in assay [17] (10 μM forskolin, read-out: cAMP accumulation (in presence of forskolin) Log EC50 (converted)) and 33.1 nM in assay [18] (in presence of forskolin, read-out: cAMP accumulation (in presence of forskolin) Log EC50 (converted)). In assay [10], the “Intracellular calcium release % Ionomycin at 100 µM” value worked out at 13.1 ± 1.7%. Further, the Emax in assay [1] (Cricetulus griseus, CHO cells without transfected receptors, response at maximum concentration used (c2), as % of ionomycin (10μM) response, mean ± s.e.m., read-out: Intracellular calcium release % ionomycin) is 6.3 ± 4.8%. Besides, the “ERK1/2‐phosphorylation % PDBu” value amounted to 81.7 ± 4.4% in assay [11] and 55.4 ± 7.4% in assay [12]. In assay [13], the “ERK1/2‐phosphorylation % PDBu at 100 µM” value worked out at 19.7 ± 3.3%. The Emax at 100 µM in assay [2] (Cricetulus griseus, CHO, read-out: ERK1/2-phosphorylation % PDBu at 100μM) stood at 5.8 ± 2.2%. The “cAMP accumulation % forskolin” value in assay [14] (% of 10 µM forskolin response) worked out at 57.6 ± 5.7%; in assay [15] (% forskolin maximum response) it was 3.7 ± 0.6%. The “cAMP Log EC50” value in assay [16] is given as “No response”. Besides, the “cAMP accumulation (in presence of forskolin) Fold increase” value in [17] (setting [22]) turned out to be 2.13 ± 0.09 fold; in assay [18] (setting [22]), 1.60 ± 0.07 fold. The “cAMP (in presence of forskolin) Fold increase” value in [19] (setting [22]) was “No response”. Besides, the “cAMP (in presence of forskolin) Log EC50” value in [19] (in presence of forskolin, log values given negative) is “No response”. In assay [4] (CHO cells without transfected receptors, response at 100μM only, EC50 not obtainable, % of forskolin-stimulated cAMP), the “cAMP accumulation (in presence of forskolin) % forskolin-stim cAMP at 100μM” value stood at 84.4 ± 4.7%.
